Experimental data: ChEMBL document CHEMBL1201862, “PubChem BioAssay data set” (2004)
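Assay format: 96-well plates, 48-hour exposure. GI50 is the concentration that inhibits growth by half.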 Active and inactive are the calls of the source. Cut-off read from the data, not from the text of the source: active = GI50 up to about 1.1 µM and inactive = higher.

Assays:
Assay in all cases: inhibition of tumour cell growth, NCI panel, 48 h
786-0 = system: 786-0
A498 = system: A498
A549 = system: A549
CAKI-1 = system: CAKI-1
CCRF-CEM = system: CCRF-CEM
COLO 205 = system: COLO 205
DLD-1 = system: DLD-1
DMS-273 = system: DMS-273
EKVX = system: EKVX
HCC 2998 = system: HCC 2998
HCT-15 = system: HCT-15
HOP-62 = system: HOP-62
HT-29 = system: HT-29
IGROV-1 = system: IGROV-1
K562 = system: K562
KM-20L2 = system: KM-20L2
KM12 = system: KM12
LOX IMVI = system: LOX IMVI
M14 = system: M14
M19-MEL = system: M19-MEL
MOLT-4 = system: MOLT-4
Malme-3M = system: Malme-3M
NCI-H226 = system: NCI-H226
NCI-H23 = system: NCI-H23
NCI-H460 = system: NCI-H460
NCI-H522 = system: NCI-H522
OVCAR-3 = system: OVCAR-3
OVCAR-8 = system: OVCAR-8
RPMI-8226 = system: RPMI-8226
RXF 393 = system: RXF 393
SF-268 = system: SF-268
SF-295 = system: SF-295
SF-539 = system: SF-539
SK-MEL-28 = system: SK-MEL-28
SK-MEL-2 = system: SK-MEL-2
SK-MEL-5 = system: SK-MEL-5
SK-OV-3 = system: SK-OV-3
SN12C = system: SN12C
SNB-19 = system: SNB-19
SNB-75 = system: SNB-75
SNB-78 = system: SNB-78
SW-620 = system: SW-620
TK-10 = system: TK-10
U-251 = system: U-251
UACC-257 = system: UACC-257
UACC-62 = system: UACC-62
UO-31 = system: UO-31
XF498 = system: XF498
ACHN = system: ACHN
HCT-116 = system: HCT-116
HOP-92 = system: HOP-92
LXFL 529 = system: LXFL 529
OVCAR-4 = system: OVCAR-4

**Q.** With O=C(Nc1ccccc1Cl)c1ccc([N+](=O)[O-])cc1 as the compound, how does the GI50 (786-0) read?
**A.** Its GI50 is 45.7 µM (inactive).

**Q.** And the GI50 (A498)?
**A.** The GI50 was > 100 µM (inactive).

**Q.** And the GI50 (A549)?
**A.** The GI50 was > 100 µM (inactive).

**Q.** What about the GI50 (CAKI-1) of the same compound?
**A.** Its GI50 is > 100 µM (inactive).

**Q.** And the GI50 (CCRF-CEM)?
**A.** The GI50 was > 100 µM (inactive).

**Q.** What about the GI50 (COLO 205) of the same compound?
**A.** Its GI50 is > 100 µM (inactive).

**Q.** What about the GI50 (DLD-1) of the same compound?
**A.** The GI50 was > 100 µM (inactive).

**Q.** What about the GI50 (DMS-273) of the same compound?
**A.** The GI50 was > 100 µM (inactive).

**Q.** What about the GI50 (EKVX) of the same compound?
**A.** The GI50 was 76.4 µM (inactive).

**Q.** What about the GI50 (HCC 2998) of the same compound?
**A.** The GI50 was > 100 µM (inactive).

**Q.** And the GI50 (HCT-15)?
**A.** Its GI50 is over 100 µM.

**Q.** What about the GI50 (HOP-62) of the same compound?
**A.** Its GI50 is 47.4 µM (inactive).

**Q.** What about the GI50 (HT-29) of the same compound?
**A.** The GI50 was > 100 µM (inactive).

**Q.** What about the GI50 (IGROV-1) of the same compound?
**A.** The GI50 was > 100 µM (inactive).

**Q.** And the GI50 (K562)?
**A.** Its GI50 is > 100 µM (inactive).

**Q.** What about the GI50 (KM-20L2) of the same compound?
**A.** The GI50 was > 100 µM (inactive).

**Q.** What about the GI50 (KM12) of the same compound?
**A.** Its GI50 is > 100 µM (inactive).

**Q.** What about the GI50 (LOX IMVI) of the same compound?
**A.** Its GI50 is > 100 µM (inactive).

**Q.** And the GI50 (M14)?
**A.** Its GI50 is > 100 µM (inactive).

**Q.** And the GI50 (M19-MEL)?
**A.** Its GI50 is > 100 µM (inactive).

**Q.** What about the GI50 (MOLT-4) of the same compound?
**A.** Its GI50 is > 100 µM (inactive).

**Q.** And the GI50 (Malme-3M)?
**A.** The GI50 was > 100 µM (inactive).

**Q.** What about the GI50 (NCI-H226) of the same compound?
**A.** Its GI50 is > 100 µM (inactive).

**Q.** What about the GI50 (NCI-H23) of the same compound?
**A.** The GI50 was > 100 µM (inactive).

**Q.** And the GI50 (NCI-H460)?
**A.** The GI50 was > 100 µM (inactive).

**Q.** What about the GI50 (NCI-H522) of the same compound?
**A.** Its GI50 is > 100 µM (inactive).

**Q.** What about the GI50 (OVCAR-3) of the same compound?
**A.** Its GI50 is > 100 µM (inactive).

**Q.** What about the GI50 (OVCAR-8) of the same compound?
**A.** Its GI50 is > 100 µM (inactive).

**Q.** What about the GI50 (RPMI-8226) of the same compound?
**A.** The GI50 was > 100 µM (inactive).

**Q.** What about the GI50 (RXF 393) of the same compound?
**A.** Its GI50 is 33.3 µM (inactive).

**Q.** And the GI50 (SF-268)?
**A.** Its GI50 is > 100 µM (inactive).

**Q.** What about the GI50 (SF-295) of the same compound?
**A.** The GI50 was 46.7 µM (inactive).

**Q.** And the GI50 (SF-539)?
**A.** The GI50 was 64.3 µM (inactive).

**Q.** And the GI50 (SK-MEL-28)?
**A.** Its GI50 is > 100 µM (inactive).

**Q.** And the GI50 (SK-MEL-2)?
**A.** The GI50 was > 100 µM (inactive).

**Q.** And the GI50 (SK-MEL-5)?
**A.** The GI50 was > 100 µM (inactive).

**Q.** And the GI50 (SK-OV-3)?
**A.** Its GI50 is > 100 µM (inactive).

**Q.** And the GI50 (SN12C)?
**A.** Its GI50 is > 100 µM (inactive).

**Q.** And the GI50 (SNB-19)?
**A.** Its GI50 is 41.2 µM (inactive).

**Q.** What about the GI50 (SNB-75) of the same compound?
**A.** The GI50 was 22.4 µM (inactive).

**Q.** What about the GI50 (SNB-78) of the same compound?
**A.** The GI50 was 39.7 µM (inactive).

**Q.** And the GI50 (SW-620)?
**A.** The GI50 was > 100 µM (inactive).

**Q.** And the GI50 (TK-10)?
**A.** The GI50 was > 100 µM (inactive).

**Q.** What about the GI50 (U-251) of the same compound?
**A.** Its GI50 is > 100 µM (inactive).

**Q.** And the GI50 (UACC-257)?
**A.** The GI50 was > 100 µM (inactive).

**Q.** What about the GI50 (UACC-62) of the same compound?
**A.** Its GI50 is > 100 µM (inactive).

**Q.** What about the GI50 (UO-31) of the same compound?
**A.** Its GI50 is > 100 µM (inactive).

**Q.** And the GI50 (XF498)?
**A.** Its GI50 is > 100 µM (inactive).

**Q.** What does the source list for CN(Cc1ccccc1)C(=NC#N)N(C)Cc1ccccc1?
**A.** GI50 (786-0): > 100 µM (inactive); GI50 (A549): > 100 µM (inactive); GI50 (ACHN): > 100 µM (inactive); GI50 (CAKI-1): > 100 µM (inactive); GI50 (COLO 205): > 100 µM (inactive); GI50 (DLD-1): > 100 µM (inactive); GI50 (DMS-273): > 100 µM (inactive); GI50 (EKVX): > 100 µM (inactive); GI50 (HCC 2998): > 100 µM (inactive); GI50 (HCT-116): > 100 µM (inactive); GI50 (HCT-15): > 100 µM; GI50 (HOP-62): > 100 µM (inactive); GI50 (HOP-92): > 100 µM (inactive); GI50 (HT-29): > 100 µM (inactive); GI50 (IGROV-1): > 100 µM (inactive); GI50 (KM-20L2): > 100 µM (inactive); GI50 (KM12): > 100 µM (inactive); GI50 (LOX IMVI): > 100 µM (inactive); GI50 (LXFL 529): > 100 µM (inactive); GI50 (M14): > 100 µM (inactive); GI50 (M19-MEL): > 100 µM (inactive); GI50 (NCI-H23): > 100 µM (inactive); GI50 (NCI-H460): > 100 µM (inactive); GI50 (NCI-H522): > 100 µM (inactive); GI50 (OVCAR-3): > 100 µM (inactive); GI50 (OVCAR-4): > 100 µM (inactive); GI50 (OVCAR-8): > 100 µM (inactive); GI50 (SF-268): > 100 µM (inactive); GI50 (SF-295): > 100 µM (inactive); GI50 (SF-539): > 100 µM (inactive); GI50 (SK-MEL-28): > 100 µM (inactive); GI50 (SK-MEL-2): > 100 µM (inactive); GI50 (SK-MEL-5): > 100 µM (inactive); GI50 (SK-OV-3): > 100 µM (inactive); GI50 (SN12C): > 100 µM (inactive); GI50 (SNB-19): > 100 µM (inactive); GI50 (SNB-78): > 100 µM (inactive); GI50 (SW-620): > 100 µM (inactive); GI50 (TK-10): > 100 µM (inactive); GI50 (U-251): > 100 µM (inactive); GI50 (UACC-257): > 100 µM (inactive); GI50 (UACC-62): > 100 µM (inactive); GI50 (UO-31): > 100 µM (inactive)
